The target of data set [1] is T1, (H+/K+)-ATPase (Canis lupus familiaris, UniProt P50996).
T1 construct: The microsomes retained at the 15%-30% sucrose interface, after centrifugation at 250,000×g for sixty minutes, were used as the source of (H^+/K^+)-ATPase; from tissue; host or cells: gastric glandular mucosa of mongrel dogs (microsomal fraction, lyophilized)
Nature of the data set: Inhibition of (H+/K+)-ATPase from canine gastric mucosa (inorganic phosphate release). It counts as biochemical. The conditions noted are these: canine gastric mucosa microsomes, pH 6.0, 30 min preincubation at 37° C.; read-out: (H+/K+)-ATPase IC50. The method, boiled down: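 Lyophilised gastric microsomes (sucrose-gradient 15%/30% interface fraction from dog mucosa, ~25 mcg protein) preincubated with compound 30 min at 37° C in 20 mM MES-Tris pH 6.0, 5 mM MgCl2, 25 mM sucrose, then 30 min more after 4 mM Tris-ATP. Released phosphate read by molybdate/ascorbate at 870 nm; activity = K+-stimulated (20 mM KCl) minus basal.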

Data set [2] deals with gastric acid secretion. Put plainly: Inhibition of gastric acid secretion in gastric fistula beagle dogs (histamine-stimulated). The conditions noted are these: Canis lupus familiaris, 4 h, histamine-stimulated, four-hour period, read-out: Gastric-Fistula Beagle % Inhibition (3 mg/kg dose). It counts as in vivo. The source says: Adult female beagle dogs weighing 6 to 11 kilograms obtained from Laboratory Research Enterprises (Kalamazoo, Mich.) or from Hazelton Research Animals (Cumberland, Va.) were surgically implanted with a simple Thomas-type gastric cannula. After recovery from surgery, the dogs were trained to stand quietly, fully conscious, in Pavlov-type dog restraining slings and were acclimated to intravenous infusion of histamine dihydrochloride. During the course of these studies, no dog was used more than once a week. All dogs were deprived of food, but not water, for 18 hours prior to each assay. Each dog was initially infused with 0.15 M sodium chloride solution at a constant rate of […]. The volume of gastric secretions, collected in plastic bottles affixed to the cannula, were measured to the nearest 0.1 ml at 30 minute intervals. One of the following protocols was followed, depending on the route chosen for administration of test compound.
Intravenous dosing: Following a 30-minute basal secretion period, test compounds were administered intravenously (i.v.). At the end of an additional 30 minute period, the saline infusion was replaced with histamine dihydrochloride in saline administered at a rate 15 mcg per kilogram of body weight per hour. Histamine stimulation was maintained for a maximum of four hours during which time gastric secretions were collected every 30 minutes. The pH and titratable acidity were determined for samples from each collection period.
Intragastric dosing: Following a 30-minute basal secretion period, he collection bottles were removed, dosing plugs here inserted, and test compounds were administered intragastrically (i.g.) At the end of a 30-minute drug absorption period, the stomachs were emptied, the collection bottles were reattached, and collections were resumed at 30-minute intervals. Simultaneously, the saline infusion was replaced with a continuous intravenous infusion of histamine dihydrochloride in saline administered for four hours at a rate 15 mcg per kilogram of body weight per hour.
Intraduodenal dosing: Dogs were also equipped with duodenal cannulas for intraduodenal (i.d.) administration of test compounds. Dosing was otherwise performed as described for intragastric dosing.
Data from each protocol were analyzed for three gastric sample variables: volume of gastric juice, acid concentration, and total acid output. Percent inhibition for each four-hour experimental period was determined for each parameter by comparison with 3 to 4 controls in which […]. Estimates of ED50's were determined from dose response curves.

Data set [3] deals with gastric acid secretion. Put plainly: Inhibition of gastric acid secretion in meal-stimulated Pavlov pouch dog. It counts as in vivo, beagle dogs. The conditions noted are these: 3 mg/kg, four-hour period. The method, then:
Adult female beagle dogs weighing 6 to 10 kilograms were obtained from Laboratory Research Enterprises (Kalamazoo, Mich.) or from Hazelton Research Animals (Cumberland, Va.). Surgical implantation of a Thomas-type gastric cannula into an innervated Pavlov pouch of each dog was performed by the method reported by L. Burrows et al., J. Surgical Res., 4, 147 (1964). After recovery from surgery, the dogs were trained to stand quietly, fully conscious, in Pavlov-type dog restraining slings. All dogs were deprived of food, but not water, for 24 hours prior to each assay. Basal acid secretion was measured by collecting from the cannulas for 30 minutes before dosing with a test compound. Solutions of the test compounds in iso-osmotic phosphate buffer (pH 7.4) were given either intravenously or directly into the Pavlov pouch. After 30 minutes the pouch was drained. The dogs were then fed 320 grams of dog food and gastric acid secretions were collected each half hour for four hours. Controls were determined in the same way except that only food (i.e., no test compound) was administered.
Data were analyzed for three different variables: volume of gastric juice, acid concentration, and total acid output. Percent inhibition for the four-hour experimental period was determined for each parameter by comparison with 3 to 4 controls. Estimates of ED50 were determined from dose response curves.

In data set [4] the target is HCMV protease (assemblin) (Human cytomegalovirus, UniProt P16753). Put plainly: Enzymatic assay for HCMV protease (assemblin) inhibitors, fluorogenic substrate DE2. It counts as biochemical. The conditions noted are these: at 100 μm; 30 min preincubation at 22° C.; read-out: Assemblin Inhibition % Inhibition at 100 μm. The method, then: The enzymatic assay for assemblin inhibitors compared the rate of product appearance between a control reaction containing no inhibitor and one that contained a known concentration of a potential inhibitor. There were two phases to the enzyme reaction. The first was a period of incubation of enzyme in the presence of inhibitor, but in the absence of the substrate. This incubation allowed for the inhibitor to bind and potentially block the enzyme from hydrolyzing the substrate. The second phase was started by adding the substrate and measuring the rate of product production.
The construction also encoded six additional histidine residues at the amino terminus of the protease. These additional histidine residues provided an affinity ligand by which it was purified using nickel-nitriloacetic acid-agarose (Qiagen).
The purified protease was stored as a 1-3 mg/ml stock solution in 50 mM sodium phosphate buffer, pH 7.4; 300 mM sodium chloride; 100 mM imidazole; 50% (v/v) glycerol. This stock was diluted with assay buffer to 4.8 μg/ml. A 100 μL aliquot of this solution was used in the enzyme reaction.
A specific substrate was synthesized based on the cleavage specificity of HCMV protease at the “maturation site” of the assembly protein (F. Liu and B. Roizman, J. Viral. 65, 5149 (1991), and A. R. Welch, et al, J. Viral., 65 4091 (1991)). The assembly protein maturation site has the sequence . . . AGVVNA*SCRLATA . . . (SEQ ID NO. 1); the substrate used was dabcycl-Abu-[…]-edans (SEQ ID NO. 2) (DE2). […] However, when the two chromophores are separated because of hydrolysis of the peptide moiety by HCMV protease the edans fluorescence was no longer quenched and an increase in fluorescence was realized. DE2 was stored as a stock solution at 160 μg/ml in dimethyl sulfoxide. This was diluted 10-fold with assay buffer to give a concentration of 16 μg/ml just before use. An aliquot of 50 μL was used in the reaction.
An assay Buffer (10 mM sodium phosphate buffer, pH 7.4; 150 mM sodium acetate; 0.1% CHAPS; and 20% (v/v) glycerol) was used to dilute stock solutions of enzyme and substrate.
Inhibitors were dissolved in dimethyl sulfoxide at 16-times the final assay concentration. A 10 μL aliquot of this inhibitor solution was used in the reaction.
A 100 μL aliquot of enzyme solution (4.8 μg/ml) was mixed with 10 μL of inhibitor solution in a 96-well plate cell and incubated at 22° C. for 30 minutes. Control reactions contained 10 μL of dimethylsulfoxide instead of inhibitor solution. After the preincubation was completed, 50 μL of substrate solution was added and the fluorescence recorded every 5 minutes for a period of 30 minutes. All reactions were run in triplicate with the exception of the uninhibited control reaction which was replicated 6-fold. The change in fluorescence was recorded over time and an average rate for each set of 3 reactions was calculated. Fluorescence assays were subject to spurious various due to factors such as dust in the 96-well plate; such results were omitted from the calculation of relative rates.

Consider five molecules from US6906078B2, “Method of using (H+/K+) ATPase inhibitors as antiviral agents” (Pharmacia Corporation, priority 1994, dated 2005).

By melting point is commonly meant the temperature, or range, at which the solid turns liquid. Usually inhibition stands for the percentage by which the read-out fell short of the control.

Like-named read-outs stand apart in the source and are kept apart here.

HCMV protease (assemblin), sequence (P16753 1-256): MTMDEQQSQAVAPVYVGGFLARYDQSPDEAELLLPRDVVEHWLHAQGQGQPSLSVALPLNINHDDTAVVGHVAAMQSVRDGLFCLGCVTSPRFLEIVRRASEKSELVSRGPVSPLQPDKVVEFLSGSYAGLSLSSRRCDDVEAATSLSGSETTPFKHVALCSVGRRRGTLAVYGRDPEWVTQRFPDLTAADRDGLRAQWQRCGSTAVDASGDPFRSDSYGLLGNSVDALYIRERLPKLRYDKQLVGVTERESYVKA
T1 sequence (P50996 whole entry): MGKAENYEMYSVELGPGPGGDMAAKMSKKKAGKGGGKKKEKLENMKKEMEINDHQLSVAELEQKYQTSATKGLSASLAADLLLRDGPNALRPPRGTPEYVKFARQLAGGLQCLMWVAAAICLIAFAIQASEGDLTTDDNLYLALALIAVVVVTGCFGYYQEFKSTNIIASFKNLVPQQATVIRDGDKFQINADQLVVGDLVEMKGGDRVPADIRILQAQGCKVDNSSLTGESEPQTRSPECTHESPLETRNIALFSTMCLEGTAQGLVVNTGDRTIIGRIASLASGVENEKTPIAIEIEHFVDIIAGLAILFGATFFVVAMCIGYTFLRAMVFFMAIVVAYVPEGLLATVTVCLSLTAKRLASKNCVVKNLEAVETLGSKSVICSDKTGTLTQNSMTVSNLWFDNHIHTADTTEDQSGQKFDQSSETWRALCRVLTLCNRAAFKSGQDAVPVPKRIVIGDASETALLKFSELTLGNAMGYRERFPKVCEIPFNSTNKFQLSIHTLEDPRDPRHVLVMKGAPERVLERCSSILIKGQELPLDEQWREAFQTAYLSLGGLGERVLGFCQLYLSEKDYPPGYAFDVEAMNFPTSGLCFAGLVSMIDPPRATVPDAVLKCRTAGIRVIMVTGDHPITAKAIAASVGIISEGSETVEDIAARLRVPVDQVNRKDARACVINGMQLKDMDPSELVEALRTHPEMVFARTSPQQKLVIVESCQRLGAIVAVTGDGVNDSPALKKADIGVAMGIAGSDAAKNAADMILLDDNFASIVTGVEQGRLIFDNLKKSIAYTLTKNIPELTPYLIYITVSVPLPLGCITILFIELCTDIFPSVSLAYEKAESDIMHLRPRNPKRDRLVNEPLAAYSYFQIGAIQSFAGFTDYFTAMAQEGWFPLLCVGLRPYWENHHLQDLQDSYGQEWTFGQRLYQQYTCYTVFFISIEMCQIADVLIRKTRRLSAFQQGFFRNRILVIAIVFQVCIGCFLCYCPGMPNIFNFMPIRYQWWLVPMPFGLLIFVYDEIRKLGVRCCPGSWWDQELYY
T1 sequence (P33704 whole entry partner): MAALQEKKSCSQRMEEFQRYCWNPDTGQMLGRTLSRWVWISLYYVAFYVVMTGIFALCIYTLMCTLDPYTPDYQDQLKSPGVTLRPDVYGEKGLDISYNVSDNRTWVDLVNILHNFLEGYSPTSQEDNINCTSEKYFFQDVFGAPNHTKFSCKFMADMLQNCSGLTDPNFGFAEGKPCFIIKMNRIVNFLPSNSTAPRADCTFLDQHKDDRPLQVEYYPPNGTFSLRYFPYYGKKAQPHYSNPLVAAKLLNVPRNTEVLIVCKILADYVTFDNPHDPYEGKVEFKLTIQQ

For `CN(C)c1ccccc1C[S+]([O-])c1nc2ccccc2[nH]1` (stereo not shown) [Example 4, 2-[(1H-Benzimidazol-2-ylsulfinyl)methyl]N,N-dimethylbenzenamine], the melting point fell in the range of 107 to 109 °C. In data set [1], the IC50 worked out at 0.7 µM. Besides, the inhibition in vivo at 3 mg/kg in data set [2] (iv, 3 mg/kg i.v.) was 14%. The “Pavlov-Pouch Dog % Inhibition (dose (mg/kg))” value in data set [3] was 3 (3 mg/kg) %.

As for `COc1ccc2[nH]c([S+]([O-])Cc3ccccc3N)nc2c1` (stereo not shown) [Example 12, 2-[[(5-Methoxy-1H-benzimidazol-2-yl)sulfinyl]methyl]benzenamine], the melting point was in the range of 147 to 148 °C. Moreover, in data set [1], the IC50 was 11 µM. Moreover, the inhibition in vivo at 3 mg/kg in data set [2] (intraduodenal, 3 mg/kg i.d.) was determined as 90%. Besides, the inhibition at 100 µM in data set [4] is 26%.

Regarding `COc1ccc2[nH]c([S+]([O-])Cc3cc(C)ccc3N)nc2c1` (stereo not shown) [Example 34, 2-[[(5-Methoxy-1H-benzimidazol-2-yl)sulfinyl]methyl]-4-methylbenzenamine], the melting point fell in the range of 148 to 149 °C. Moreover, the IC50 in data set [1] stood at 4.2 µM. Also, the inhibition in vivo at 3 mg/kg in data set [2] (intraduodenal, 3 mg/kg i.d.) turned out to be 66%. Besides, in data set [2] (iv, 3 mg/kg i.v.), the inhibition in vivo at 3 mg/kg worked out at 91%. Besides, the inhibition in vivo at 3 mg/kg in data set [2] (po, 3 mg/kg i.g.) worked out at 43%. Further, the “Pavlov-Pouch Dog % Inhibition (dose (mg/kg))” value in data set [3] was 79 (3 mg/kg) %.

The molecule `COc1c(C)cc(N)c(C[S+]([O-])c2nc3ccccc3[nH]2)c1C` (stereo not shown) [Example 39, 2-[(1H-Benzimidazol-2-ylsulfinyl)methyl]-4-methoxy-3,5-dimethylbenzenamine] showed a melting point of 150 to 155 °C. In data set [1], the IC50 stood at 0.2 µM. For the same molecule, the inhibition in vivo at 3 mg/kg in data set [2] (intraduodenal, 3 mg/kg i.d.) was found to be 53%. The inhibition at 100 µM in data set [4] was 46%.

Take `Nc1ccccc1C[S+]([O-])c1nc2cc(C(F)(F)F)ccc2[nH]1` (stereo not shown) [Example 47]: the melting point fell in the range of 152 to 152.5 °C. Besides, in data set [1], the IC50 was 4.4 µM. The inhibition in vivo at 3 mg/kg in data set [2] (intraduodenal, 3 mg/kg i.d.) amounted to 37%. Besides, the inhibition at 100 µM in data set [4] stood at 40%.
